From patent publication US10076519B2 (CYTOKINETICS, INC., priority 2010, dated 2018)

system: rabbit skeletal myofibrils (fast skeletal myofibrils); test: Activation of fast skeletal myofibrils (PUMA assay, PK/LDH-coupled ATPase at pCa25); assay type: biochemical; conditions: AC1.4 determined according to the procedure of Example 39; reported as class symbols
Outline: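 ATPase activity of Triton-washed rabbit skeletal myofibrils, roughly 90% fast fibres, tracked by NADH loss at 340 nm through a PK/LDH-coupled ADP-regenerating system. Calcium set to 25% of maximal activity (pCa25), in PIPES 12 mM pH 6.8 with 2 mM MgCl2 and 1 mM DTT; AC1.4 reported.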

Mean AC1.4	Compound
B (B=1-10 uM)	CC(C)(CNc1ccc(-c2ccc3[nH]nc(C(O)CO)c3c2)nn1)c1ccc(F)cc1 (stereo not shown) [1-[5-(6-{[2-(4-fluorophenyl)-2-methylpropyl]amino}pyridazin-3-yl)-1H-indazol-3-yl]ethane-1,2-diol]
D (D=>20 uM)	CC(C)(CNc1ccc(C(=O)N2CCC2C(N)=O)nn1)c1ccc(F)cc1 (stereo not shown) [1-[(6-{[2-(4-fluorophenyl)-2-methylpropyl]amino}pyridazin-3-yl)carbonyl]azetidine-2-carboxamide]
D (D=>20 uM)	CC(C)(CNc1ccc(C(=O)N2CCCCC2C(N)=O)nn1)c1ccc(F)cc1 (stereo not shown) [1-[(6-{[2-(4-fluorophenyl)-2-methylpropyl]amino}pyridazin-3-yl)carbonyl]piperidine-2-carboxamide]
D (D=>20 uM)	CC(C)(CNc1ccc(C(=O)N2CCCC(C(N)=O)C2)nn1)c1ccc(F)cc1 (stereo not shown) [1-[(6-{[2-(4-fluorophenyl)-2-methylpropyl]amino}pyridazin-3-yl)carbonyl]piperidine-3-carboxamide]
D (D=>20 uM)	CC(C)(CNc1ccc(C(=O)N2CCC(C(N)=O)CC2)nn1)c1ccc(F)cc1 [1-[(6-{[2-(4-fluorophenyl)-2-methylpropyl]amino}pyridazin-3-yl)carbonyl]piperidine-4-carboxamide]
D (D=>20 uM)	CC(C)(CNc1ccc(C(=O)N2CCCC2C(N)=O)nn1)c1ccc(F)cc1 (stereo not shown) [1-[(6-{[2-(4-fluorophenyl)-2-methylpropyl]amino}pyridazin-3-yl)carbonyl]pyrrolidine-2-carboxamide]
D (D=>20 uM)	CC(C)(CNc1ccc(C(=O)N2CCC(C(N)=O)C2)nn1)c1ccc(F)cc1 (stereo not shown) [1-[(6-{[2-(4-fluorophenyl)-2-methylpropyl]amino}pyridazin-3-yl)carbonyl]pyrrolidine-3-carboxamide]
D (D=>20 uM)	CC(C)(CNc1ccc(C(=O)NC2(C(N)=O)CC2)nn1)c1ccc(F)cc1 [1-[(6-{[2-(4-fluorophenyl)-2-methylpropyl]amino}pyridazin-3-yl)carbonylamino]cyclopropane-carboxamide]
D (D=>20 uM)	CC(C)(CNc1ccc(C(=O)NC2(C(=O)O)CC2)nn1)c1ccc(F)cc1 [1-[(6-{[2-(4-fluorophenyl)-2-methylpropyl]amino}pyridazin-3-yl)carbonylamino]cyclopropane-carboxylic acid]
D (D=>20 uM)	CC(=O)N1CC(CNc2ccc(-c3ccc4[nH]ncc4c3)nn2)(c2ncccc2F)C1 [1-acetyl-3-(3-fluoro(2-pyridyl))-3-{[(6-(1H-indazol-5-yl)pyridazin-3-yl)amino]methyl}azetidine]
D (D=>20 uM)	CC(=O)N1CC=C(c2ccc(NCC(C)(C)c3ccc(F)cc3)nn2)CC1 [1-acetyl-4-(6-{[2-(4-fluorophenyl)-2-methylpropyl]amino}pyridazin-3-yl)-1,2,5,6-tetrahydropyridine]
B (B=1-10 uM)	CC(C)(CNc1ccc(-c2ccccc2C(N)=O)nn1)c1ccc(F)cc1 [2-(6-{[2-(4-fluorophenyl)-2-methylpropyl]amino}pyridazin-3-yl)benzamide]
A (A=<1 uM)	CC(C)(CNc1ccc(-c2cc(C(N)=O)ccn2)nn1)c1ccc(F)cc1 [2-(6-{[2-(4-fluorophenyl)-2-methylpropyl]amino}pyridazin-3-yl)pyridine-4-carboxamide]
B (B=1-10 uM)	CC(C)(O)c1n[nH]c2ccc(-c3ccc(NCC(C)(C)c4ccc(F)cc4)nn3)cc12 [2-[5-(6-{[2-(4-fluorophenyl)-2-methylpropyl]amino}pyridazin-3-yl)-1H-indazol-3-yl]propan-2-ol]

same assay, conditions: median AC1.4 class, procedure of Example 39

Mean AC1.4	Compound
B (B=1-10 uM)	CC(O)c1cnc(-c2ccc(NCC3(c4ncccc4F)CCC3)nn2)s1 (stereo not shown) [1-{2-[6-({[(3-fluoro-2-pyridyl)cyclobutyl]methyl}ami-no)pyridazin-3-yl]-1,3-thiazol-5-yl}ethan-1-ol]
C (C=10-20 uM)	CC(=O)c1cnc(-c2ccc(NCC3(c4ncccc4F)CCC3)nn2)s1 [1-{2-[6-({[(3-fluoro-2-pyridyl)cyclobutyl]methyl}ami-no)pyridazin-3-yl]-1,3-thiazol-5-yl}ethan-1-one]
A (A=<1 uM)	O=C(NCc1cnc(-c2ccc(NCC3(c4ncccc4F)CCC3)nn2)s1)c1ncn[nH]1 [1H-1,2,4-triazol-5-yl-N-({2-[6-({[(3-fluoro(2-pyridyl))cyclobutyl]methyl}ami-no)pyridazin-3-yl](1,3-thiazol-5-yl)}methyl)carboxamide]
B (B=1-10 uM)	OC(c1cnc(-c2ccc(NCC3(c4ncccc4F)CCC3)nn2)s1)C(F)(F)F (stereo not shown) [2,2,2-trifluoro-1-{2-[6-({[(3-fluoro(2-pyridyl))cyclobutyl]methyl}ami-no)pyridazin-3-yl](1,3-thiazol-5-yl)}ethan-1-ol]
B (B=1-10 uM)	OC(O)(c1cnc(-c2ccc(NCC3(c4ncccc4F)CCC3)nn2)s1)C(F)(F)F [2,2,2-trifluoro-1-{2-[6-({[(3-fluoro(2-pyridyl))cyclobutyl]methyl}ami-no)pyridazin-3-yl](1,3-thiazol-5-yl)}ethane-1,1-diol]
B (B=1-10 uM)	OC(c1cnc(-c2ccc(NCC3(c4ncccc4F)CCC3)nn2)s1)C(F)F (stereo not shown) [2,2-difluoro-1-{2-[6-({[(3-fluoro(2-pyridyl))cyclobutyl]methyl}ami-no)pyridazin-3-yl](1,3-thiazol-5-yl)}ethan-1-ol]
B (B=1-10 uM)	CC(C)(Nc1ccc(-c2ncc(C(N)=O)s2)nn1)c1ncccc1Cl [2-(6-{[1-(3-chloro(2-pyridyl))-isopropyl]amino}pyridazin-3-yl)-1,3-thiazole-5-carboxamide]
A (A=<1 uM)	CC(C)(CNc1ccc(-c2ncc(C(N)=O)s2)nn1)c1ncccc1F [2-(6-{[2-(3-fluoro(2-pyridyl))-2-methylpropyl]amino}pyridazin-3-yl)-1,3-thiazole-5-carboxamide]
A (A=<1 uM)	NC(=O)c1cnc(-c2ccc(NCC3(c4ccccn4)CCC3)nn2)s1 [2-(6-{[(2-pyridylcyclobutyl)methyl]ami-no}pyridazin-3-yl)-1,3-thiazole-5-carboxamide]
C (C=10-20 uM)	O=C(O)c1cnc(-c2ccc(NCC3(c4ccccn4)CCC3)nn2)s1 [2-(6-{[(2-pyridylcyclobutyl)methyl]ami-no}pyridazin-3-yl)-1,3-thiazole-5-carboxylic acid]
B (B=1-10 uM)	NC(=O)c1cnc(-c2ccc(NC3(c4ncccc4F)CCC3)nn2)s1 [2-(6-{[(3-fluoro-2-pyridyl)cyclobutyl]amino}pyr-idazin-3-yl)-1,3-thiazole-5-carboxamide]
B (B=1-10 uM)	NC(=O)c1cnc(-c2ccc(NC3(c4ccc(F)cc4)CCC3)nn2)s1 [2-(6-{[(4-fluorophenyl)cyclobutyl]ami-no}pyridazin-3-yl)-1,3-thiazole-5-carboxamide]
D (D=>20 uM)	NC(=O)c1ccnc(C2(Nc3ccc(-c4cc(C(N)=O)ccc4F)nn3)CCC2)c1 [2-({[6-(3-carbamoyl-6-fluorophenyl)pyridazin-3-yl]amino}cyclobutyl)pyridine-4-carboxamide]
B (B=1-10 uM)	CC(C)(Nc1ccc(-c2ncc(C(N)=O)s2)nn1)c1cccc(OC(F)F)n1 [2-[6-({1-[6-(difluoromethoxy)(2-pyridyl)]-isopropyl}amino)pyridazin-3-yl]-1,3-thiazole-5-carboxamide]
C (C=10-20 uM)	O=C(c1cnc(-c2ccc(NCC3(c4ncccc4F)CCC3)nn2)s1)N1CCCC(O)C1 (stereo not shown) [2-[6-({[(3-fluoro(2-pyridyl))cyclobutyl]methyl}ami-no)pyridazin-3-yl](1,3-thiazol-5-yl) 3-hydroxypiperidyl ketone]
C (C=10-20 uM)	O=C(c1cnc(-c2ccc(NCC3(c4ncccc4F)CCC3)nn2)s1)N1CCC(O)C1 (stereo not shown) [2-[6-({[(3-fluoro(2-pyridyl))cyclobutyl]methyl}ami-no)pyridazin-3-yl](1,3-thiazol-5-yl) 3-hydroxypyrrolidinyl ketone]
C (C=10-20 uM)	O=C(c1cnc(-c2ccc(NCC3(c4ncccc4F)CCC3)nn2)s1)N1CCC(O)CC1 [2-[6-({[(3-fluoro(2-pyridyl))cyclobutyl]methyl}ami-no)pyridazin-3-yl](1,3-thiazol-5-yl) 4-hydroxypiperidyl ketone]
C (C=10-20 uM)	O=C(c1cnc(-c2ccc(NCC3(c4ncccc4F)CCC3)nn2)s1)N1CCOCC1 [2-[6-({[(3-fluoro(2-pyridyl))cyclobutyl]methyl}ami-no)pyridazin-3-yl](1,3-thiazol-5-yl) morpholin-4-yl ketone]
D (D=>20 uM)	Cn1cc(C(N)=O)nc1-c1ccc(NCC2(c3ncccc3F)CCC2)nn1 [2-[6-({[(3-fluoro(2-pyridyl))cyclobutyl]methyl}ami-no)pyridazin-3-yl]-1-methylimidazole-4-carboxamide]

same assay, conditions: median AC1.4 reported as class; procedure of Example 39

Mean AC1.4	Compound
D (D=>20 uM)	CC(=O)N1CCN(Cc2cnc(-c3ccc(NCC4(c5ncccc5F)CCC4)nn3)s2)CC1 [1-acetyl-4-({2-[6-({[(3-fluoro(2-pyridyl))cyclobutyl]methyl}ami-no)pyridazin-3-yl](1,3-thiazol-5-yl)}methyl)piperazine]
A (A=<1 uM)	CNC(=O)Cc1csc(NC(=O)c2ccc(NCC3(c4ncccc4F)CCC3)nn2)n1 [2-(2-{[6-({[(3-fluoro(2-pyridyl))cyclobutyl]methyl}ami-no)pyridazin-3-yl]carbonylamino}(1,3-thiazol-4-yl))-N-methylacetamide]
D (D=>20 uM)	CC(C)(Nc1ccc(-c2ncc(CC(N)=O)s2)nn1)c1ncccc1Cl [2-[2-(6-{[1-(3-chloro(2-pyridyl))-isopropyl]amino}pyridazin-3-yl)-1,3-thiazol-5-yl]acetamide]
B (B=1-10 uM)	CC(C)(CNc1ccc(-c2ncc(CC(N)=O)s2)nn1)c1ncccc1Cl [2-[2-(6-{[2-(3-chloro(2-pyridyl))-2-methylpropyl]amino}pyridazin-3-yl)-1,3-thiazol-5-yl]acetamide]
